Results from ChEMBL document CHEMBL1201862, “PubChem BioAssay data set” (2004).
Active and inactive are the calls of the source.

Key:
[1] = biological target: T1, G-protein coupled receptor 55 (Homo sapiens, UniProt Q9Y2T6); test: GPR55 agonists via beta-arrestin recruitment, primary screen, imaging, U2OS cells, beta-arrestin-GFP redistribution (AID 1961); format: functional
Cannabinoid receptor 2 [2] = biological target: T2, Cannabinoid receptor 2 (Homo sapiens, UniProt P34972); test: SAR analysis of antagonists of the Cannabinoid Receptor 2 using an Image-Based Assay - Set 2. [Related pubchem assays (depositor defined):AID1961, AID1965]; format: functional
T2 sequence (P34972 whole entry): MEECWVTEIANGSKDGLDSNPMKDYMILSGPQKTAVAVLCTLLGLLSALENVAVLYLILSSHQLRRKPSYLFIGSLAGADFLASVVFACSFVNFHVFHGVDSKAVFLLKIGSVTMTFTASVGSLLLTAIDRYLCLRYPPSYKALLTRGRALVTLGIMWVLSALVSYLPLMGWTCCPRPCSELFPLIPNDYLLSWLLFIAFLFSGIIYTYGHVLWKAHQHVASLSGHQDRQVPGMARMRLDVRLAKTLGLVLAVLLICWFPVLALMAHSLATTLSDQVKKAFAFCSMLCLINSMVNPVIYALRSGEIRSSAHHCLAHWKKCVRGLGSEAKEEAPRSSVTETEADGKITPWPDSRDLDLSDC

Cannabinoid receptor 2 [3] = biological target: T2, Cannabinoid receptor 2; test: SAR analysis of agonists of the Cannabinoid Receptor 2 using an Image-Based Assay - Set 2. [Related pubchem assays (depositor defined):AID1961, AID1965]; format: functional
Caspase-3 = biological target: T3, Caspase-3 (Homo sapiens, UniProt P42574); format: functional;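 note: Dose-response selectivity test against caspase-3 for candidate inhibitors of sentrin-specific proteases (SENPs)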
T3 sequence (P42574 whole entry): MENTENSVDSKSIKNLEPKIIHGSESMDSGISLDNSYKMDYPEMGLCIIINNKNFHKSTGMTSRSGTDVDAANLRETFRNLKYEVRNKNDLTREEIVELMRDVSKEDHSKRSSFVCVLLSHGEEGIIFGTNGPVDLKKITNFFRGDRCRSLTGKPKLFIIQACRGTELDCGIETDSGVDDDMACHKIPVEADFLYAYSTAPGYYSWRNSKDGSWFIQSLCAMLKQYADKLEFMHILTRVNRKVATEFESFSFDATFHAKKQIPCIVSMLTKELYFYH

[4] = biological target: T4, Sentrin-specific protease 7 (Homo sapiens, UniProt Q9BQF6); format: functional;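 note: Luminescence-based dose-response confirmation of ultra-high-throughput screening hits, measuring inhibition of SENP7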
T4 sequence (Q9BQF6 whole entry): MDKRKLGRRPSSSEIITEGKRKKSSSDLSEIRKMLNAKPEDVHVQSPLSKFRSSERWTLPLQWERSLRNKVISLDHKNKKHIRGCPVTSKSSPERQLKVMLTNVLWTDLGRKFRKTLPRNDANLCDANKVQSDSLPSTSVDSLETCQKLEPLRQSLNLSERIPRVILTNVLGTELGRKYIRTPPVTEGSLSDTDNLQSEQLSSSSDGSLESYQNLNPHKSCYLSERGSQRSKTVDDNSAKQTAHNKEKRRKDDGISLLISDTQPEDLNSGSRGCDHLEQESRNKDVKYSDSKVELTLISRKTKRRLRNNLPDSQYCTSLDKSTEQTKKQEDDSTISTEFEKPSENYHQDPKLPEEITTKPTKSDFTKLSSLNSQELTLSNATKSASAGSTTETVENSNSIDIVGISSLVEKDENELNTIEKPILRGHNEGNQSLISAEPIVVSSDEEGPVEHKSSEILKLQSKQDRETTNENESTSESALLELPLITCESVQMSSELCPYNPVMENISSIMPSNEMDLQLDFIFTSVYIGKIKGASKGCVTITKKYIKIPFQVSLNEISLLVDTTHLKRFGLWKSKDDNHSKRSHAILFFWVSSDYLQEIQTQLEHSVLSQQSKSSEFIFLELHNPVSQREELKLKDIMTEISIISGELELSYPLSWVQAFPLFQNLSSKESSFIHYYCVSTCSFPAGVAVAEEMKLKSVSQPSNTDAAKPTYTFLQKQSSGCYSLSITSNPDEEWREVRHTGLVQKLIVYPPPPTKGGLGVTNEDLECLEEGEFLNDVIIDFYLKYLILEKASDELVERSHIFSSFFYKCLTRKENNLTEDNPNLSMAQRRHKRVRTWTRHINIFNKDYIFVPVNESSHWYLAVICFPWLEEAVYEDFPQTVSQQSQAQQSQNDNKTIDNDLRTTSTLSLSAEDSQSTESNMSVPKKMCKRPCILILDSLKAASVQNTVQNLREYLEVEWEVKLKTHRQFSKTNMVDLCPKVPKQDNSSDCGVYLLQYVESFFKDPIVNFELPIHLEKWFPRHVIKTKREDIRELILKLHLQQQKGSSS

[5] = biological target: T5, Sentrin-specific protease 6 (Homo sapiens, UniProt Q9GZR1); format: functional;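 note: Luminescence-based dose-response confirmatory assay of SENP6 inhibition, following up an ultra-high-throughput screen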
T5 sequence (Q9GZR1 whole entry): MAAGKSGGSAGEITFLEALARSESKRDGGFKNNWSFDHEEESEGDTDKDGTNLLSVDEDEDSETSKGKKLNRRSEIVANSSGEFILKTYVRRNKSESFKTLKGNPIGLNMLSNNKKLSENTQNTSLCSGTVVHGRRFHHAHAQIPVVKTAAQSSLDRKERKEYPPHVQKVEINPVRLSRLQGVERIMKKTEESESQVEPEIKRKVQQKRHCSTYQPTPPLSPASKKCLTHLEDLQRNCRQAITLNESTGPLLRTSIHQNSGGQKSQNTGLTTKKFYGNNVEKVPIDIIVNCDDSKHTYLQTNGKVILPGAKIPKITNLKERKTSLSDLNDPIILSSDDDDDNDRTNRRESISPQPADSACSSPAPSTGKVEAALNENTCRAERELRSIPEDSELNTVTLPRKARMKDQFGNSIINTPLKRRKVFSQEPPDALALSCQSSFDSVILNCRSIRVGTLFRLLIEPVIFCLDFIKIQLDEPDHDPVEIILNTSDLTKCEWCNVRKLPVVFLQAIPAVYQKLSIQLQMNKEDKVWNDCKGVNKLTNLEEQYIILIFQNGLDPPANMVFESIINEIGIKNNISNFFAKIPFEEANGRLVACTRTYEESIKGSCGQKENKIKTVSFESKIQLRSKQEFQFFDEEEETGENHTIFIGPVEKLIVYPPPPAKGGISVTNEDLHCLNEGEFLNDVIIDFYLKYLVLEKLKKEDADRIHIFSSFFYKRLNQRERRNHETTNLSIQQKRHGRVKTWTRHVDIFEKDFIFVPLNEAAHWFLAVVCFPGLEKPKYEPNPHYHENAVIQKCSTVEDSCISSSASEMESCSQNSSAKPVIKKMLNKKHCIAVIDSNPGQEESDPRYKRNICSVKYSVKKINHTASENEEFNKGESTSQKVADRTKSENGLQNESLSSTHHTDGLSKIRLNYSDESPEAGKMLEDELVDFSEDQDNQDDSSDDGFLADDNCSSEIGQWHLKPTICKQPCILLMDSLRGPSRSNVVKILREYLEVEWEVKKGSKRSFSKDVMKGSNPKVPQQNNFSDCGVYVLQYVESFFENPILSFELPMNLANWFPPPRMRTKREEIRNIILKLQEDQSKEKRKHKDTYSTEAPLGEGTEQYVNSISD

[6] = biological target: T6, Sentrin-specific protease 8 (Homo sapiens, UniProt Q96LD8); format: functional;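 note: luminescence read-out of SENP8 inhibition, dose-response confirmation following an ultra-high-throughput screen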
T6 sequence (Q96LD8 whole entry): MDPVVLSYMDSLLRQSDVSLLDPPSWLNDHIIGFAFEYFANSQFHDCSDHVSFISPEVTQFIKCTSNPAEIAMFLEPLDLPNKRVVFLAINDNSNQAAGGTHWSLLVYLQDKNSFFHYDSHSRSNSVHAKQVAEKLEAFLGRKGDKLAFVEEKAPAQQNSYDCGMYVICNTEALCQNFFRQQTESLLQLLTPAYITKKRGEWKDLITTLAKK

[7] = biological target: T1, G-protein coupled receptor 55; test: SAR analysis of selective Agonists of GPR55 using an Image-Based Assay. [Related pubchem assays (depositor defined):AID1961, AID1965]; format: functional
Cannabinoid receptor 1 = Cannabinoid receptor 1 (Homo sapiens, UniProt P21554); test: SAR analysis of antagonists of the Cannabinoid Receptor 1 using an Image-Based Assay. [Related pubchem assays (depositor defined):AID1961, AID1965]; format: functional
Sequence of Cannabinoid receptor 1 (P21554 whole entry): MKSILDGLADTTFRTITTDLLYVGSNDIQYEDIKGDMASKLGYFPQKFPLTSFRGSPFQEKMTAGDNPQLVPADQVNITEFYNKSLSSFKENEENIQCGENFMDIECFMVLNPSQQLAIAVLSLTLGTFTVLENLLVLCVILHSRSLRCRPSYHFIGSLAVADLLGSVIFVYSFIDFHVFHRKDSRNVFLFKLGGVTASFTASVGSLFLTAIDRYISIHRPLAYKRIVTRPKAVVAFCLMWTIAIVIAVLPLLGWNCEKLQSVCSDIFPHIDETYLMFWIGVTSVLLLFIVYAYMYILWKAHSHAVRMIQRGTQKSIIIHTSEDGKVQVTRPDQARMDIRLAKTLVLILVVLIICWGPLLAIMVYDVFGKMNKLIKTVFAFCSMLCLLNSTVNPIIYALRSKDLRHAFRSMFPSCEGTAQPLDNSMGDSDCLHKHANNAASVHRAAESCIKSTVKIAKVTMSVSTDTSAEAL

[8] = HepG2 cell cytotoxicity, dose response, cytotoxicity control, ATP luminescence, cherry-pick, activator set 2 (AID 1053143); format: functional, cell-based
HEK293 [9] = test: inhibitors of LMP1-driven NF-kB reporter, dose response, cell-based, HEK293, luciferase, cherry-pick (AID 588343); format: functional; conditions: Homo sapiens
[10] = biological target: Latent membrane protein 1 (Human herpesvirus 4 (strain B95-8), UniProt P03230); test: TES1-eGFP NF-kB reporter inhibition versus Tet-On dsRED, dose response, selectivity assay for LMP1 NF-kB inhibitor project, imaging, HEK293T, dual-color eGFP/dsRED, cherry-picks (AID 588398); format: functional, cell-based
Sequence of Latent membrane protein 1 (P03230 whole entry): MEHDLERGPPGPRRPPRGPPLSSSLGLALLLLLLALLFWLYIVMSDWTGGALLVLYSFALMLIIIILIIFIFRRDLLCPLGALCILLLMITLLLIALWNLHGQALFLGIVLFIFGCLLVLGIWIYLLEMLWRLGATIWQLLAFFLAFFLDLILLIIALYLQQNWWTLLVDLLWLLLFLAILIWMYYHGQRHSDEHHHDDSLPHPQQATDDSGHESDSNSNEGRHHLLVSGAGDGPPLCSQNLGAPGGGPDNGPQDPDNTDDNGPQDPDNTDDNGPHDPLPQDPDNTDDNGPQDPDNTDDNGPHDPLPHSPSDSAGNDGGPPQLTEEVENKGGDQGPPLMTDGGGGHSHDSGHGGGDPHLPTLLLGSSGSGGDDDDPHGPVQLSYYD

Interleukin-8 = Interleukin-8 (Homo sapiens, UniProt P10145); test: Dose Response confirmation of uHTS small molecule hits for cystic fibrosis induced NFkb Inhibitors in a PAF-induced IL8 counterscreen.; format: functional; conditions: read-out: IC50_Mean
HEK293 [11] = test: NOD1 signaling inhibitors, primary screen, cell-based, luminescence, uHTS (AID 1578); format: functional; conditions: Homo sapiens
HEK293 [12] = test: cells; format: functional, cell-based; conditions: Homo sapiens
HEK293 [13] = test: cells; format: functional, cell-based; conditions: Homo sapiens; remark: listed apart in the source
[14] = biological target: Nucleotide-binding oligomerization domain-containing protein 2 (Homo sapiens, UniProt Q9HC29); test: NOD2 signaling inhibitors, cell-based, luminescence, uHTS, HEK293 (AID 1566); format: functional
Sequence of Nucleotide-binding oligomerization domain-containing protein 2 (Q9HC29 whole entry, the tested form may be a part): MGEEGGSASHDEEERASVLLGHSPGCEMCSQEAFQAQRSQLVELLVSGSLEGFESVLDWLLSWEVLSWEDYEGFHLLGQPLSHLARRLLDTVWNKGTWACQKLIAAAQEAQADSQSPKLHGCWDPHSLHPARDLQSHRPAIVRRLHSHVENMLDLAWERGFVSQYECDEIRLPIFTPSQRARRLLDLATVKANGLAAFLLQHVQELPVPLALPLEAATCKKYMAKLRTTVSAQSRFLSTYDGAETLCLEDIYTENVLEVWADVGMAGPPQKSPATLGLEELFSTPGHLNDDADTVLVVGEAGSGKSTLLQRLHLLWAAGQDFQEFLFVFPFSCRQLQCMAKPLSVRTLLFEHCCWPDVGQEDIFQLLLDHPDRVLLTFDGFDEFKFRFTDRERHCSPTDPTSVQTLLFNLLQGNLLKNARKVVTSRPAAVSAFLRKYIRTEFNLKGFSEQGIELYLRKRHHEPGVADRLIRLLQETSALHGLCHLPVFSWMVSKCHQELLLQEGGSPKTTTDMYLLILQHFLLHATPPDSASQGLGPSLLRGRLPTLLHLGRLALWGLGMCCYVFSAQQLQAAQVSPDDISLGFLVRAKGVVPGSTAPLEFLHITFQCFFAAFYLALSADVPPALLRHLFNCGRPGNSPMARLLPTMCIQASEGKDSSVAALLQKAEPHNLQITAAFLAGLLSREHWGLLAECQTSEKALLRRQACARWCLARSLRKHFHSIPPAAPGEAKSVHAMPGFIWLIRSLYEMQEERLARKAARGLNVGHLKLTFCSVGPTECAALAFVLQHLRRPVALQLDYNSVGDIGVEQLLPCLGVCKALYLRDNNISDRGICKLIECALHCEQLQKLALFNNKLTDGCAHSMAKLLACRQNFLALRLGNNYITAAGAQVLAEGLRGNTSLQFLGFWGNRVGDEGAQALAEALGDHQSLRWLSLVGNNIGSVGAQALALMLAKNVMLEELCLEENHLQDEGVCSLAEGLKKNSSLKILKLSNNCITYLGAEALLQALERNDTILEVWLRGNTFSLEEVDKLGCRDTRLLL

HEK293 [15] = test: NOD2 signaling inhibitors in MDP-stimulated cells, cell-based, uHTS, luminescence (AID 2001); format: functional; conditions: Homo sapiens
HEK293 [16] = test: cells; format: functional, cell-based; conditions: Homo sapiens; remark: listed apart in the source
Vero = Vero cell cytotoxicity, cytotoxicity control for flavivirus capping enzyme inhibitors (AID 588742); format: functional; conditions: Chlorocebus sabaeus
[17] = Counterscreen for inhibitors of Trypanosoma brucei methionyl tRNA synthetase (MetRS): Luminescence-based cell-based high throughput dose response assay to identify compounds that are cytotoxic to Jurkat human T lymphocyte cells.; format: functional
Cytochrome P450 1A2 = biological target: T7, Cytochrome P450 1A2 (Homo sapiens, UniProt P05177);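 note: PubChem cytochrome P450 panel assay, CYP1A2 panel member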
T7 sequence (P05177 whole entry): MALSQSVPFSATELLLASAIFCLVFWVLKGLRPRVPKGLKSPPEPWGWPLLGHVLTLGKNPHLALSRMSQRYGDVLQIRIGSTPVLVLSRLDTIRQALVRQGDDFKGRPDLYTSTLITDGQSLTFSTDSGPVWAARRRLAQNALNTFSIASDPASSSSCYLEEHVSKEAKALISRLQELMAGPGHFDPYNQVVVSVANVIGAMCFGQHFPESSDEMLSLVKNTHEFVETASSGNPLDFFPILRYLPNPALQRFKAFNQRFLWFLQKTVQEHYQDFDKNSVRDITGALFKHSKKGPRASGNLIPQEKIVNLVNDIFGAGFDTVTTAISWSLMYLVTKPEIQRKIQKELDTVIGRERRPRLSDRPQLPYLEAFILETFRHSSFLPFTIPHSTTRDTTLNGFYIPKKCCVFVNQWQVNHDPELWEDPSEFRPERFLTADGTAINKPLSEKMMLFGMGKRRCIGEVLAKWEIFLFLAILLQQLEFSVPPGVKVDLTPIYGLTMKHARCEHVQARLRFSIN

[18] = Luminescence Cell-Based Dose Retest to Confirm Inhibitors of Cancer Stem Cells. [Related pubchem assays (depositor defined):AID2717, AID2721]; format: functional; conditions: Homo sapiens
[19] = biological target: Heat shock protein HSP 90-alpha (Homo sapiens, UniProt P07900); format: functional, organism-based
Genome polyprotein = Genome polyprotein (dengue virus type 2, UniProt P29990); test: Dengue-2 NS5 methyltransferase inhibitors, primary screen, biochemical, confirmation dose response (AID 588689); format: functional
Sequence of Genome polyprotein (P29990 2492-3391 limits assumed): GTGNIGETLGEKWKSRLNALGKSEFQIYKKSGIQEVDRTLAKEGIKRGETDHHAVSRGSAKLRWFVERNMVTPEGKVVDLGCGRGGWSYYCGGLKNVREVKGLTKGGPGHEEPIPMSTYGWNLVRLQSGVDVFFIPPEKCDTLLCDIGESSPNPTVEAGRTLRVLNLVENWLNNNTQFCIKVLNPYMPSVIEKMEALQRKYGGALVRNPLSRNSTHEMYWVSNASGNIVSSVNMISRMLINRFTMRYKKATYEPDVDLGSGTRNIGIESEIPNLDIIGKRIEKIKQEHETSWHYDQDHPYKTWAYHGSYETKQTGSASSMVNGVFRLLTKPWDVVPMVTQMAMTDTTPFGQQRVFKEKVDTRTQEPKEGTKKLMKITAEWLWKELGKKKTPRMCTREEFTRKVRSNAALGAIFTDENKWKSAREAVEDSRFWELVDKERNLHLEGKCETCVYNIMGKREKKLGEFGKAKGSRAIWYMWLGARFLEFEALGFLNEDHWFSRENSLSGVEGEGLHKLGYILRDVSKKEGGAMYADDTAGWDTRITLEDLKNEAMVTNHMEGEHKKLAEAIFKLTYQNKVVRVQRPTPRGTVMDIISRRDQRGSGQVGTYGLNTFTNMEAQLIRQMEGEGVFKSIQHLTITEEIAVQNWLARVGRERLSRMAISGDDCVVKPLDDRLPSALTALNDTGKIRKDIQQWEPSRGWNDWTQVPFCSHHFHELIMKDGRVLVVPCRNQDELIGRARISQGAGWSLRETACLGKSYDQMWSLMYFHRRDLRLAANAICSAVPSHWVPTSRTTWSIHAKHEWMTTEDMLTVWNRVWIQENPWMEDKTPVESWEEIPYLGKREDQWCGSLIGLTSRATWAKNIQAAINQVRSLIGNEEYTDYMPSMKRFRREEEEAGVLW

[20] = biological target: Lysine-specific demethylase 4C (Homo sapiens, UniProt Q9H3R0); test: GASC-1 (JMJD2C) histone demethylase inhibitors, dose response, biochemical, DELFIA europium, cherry-picked samples (AID 488835); format: functional
Sequence of Lysine-specific demethylase 4C (Q9H3R0 whole entry, the tested form may be a part): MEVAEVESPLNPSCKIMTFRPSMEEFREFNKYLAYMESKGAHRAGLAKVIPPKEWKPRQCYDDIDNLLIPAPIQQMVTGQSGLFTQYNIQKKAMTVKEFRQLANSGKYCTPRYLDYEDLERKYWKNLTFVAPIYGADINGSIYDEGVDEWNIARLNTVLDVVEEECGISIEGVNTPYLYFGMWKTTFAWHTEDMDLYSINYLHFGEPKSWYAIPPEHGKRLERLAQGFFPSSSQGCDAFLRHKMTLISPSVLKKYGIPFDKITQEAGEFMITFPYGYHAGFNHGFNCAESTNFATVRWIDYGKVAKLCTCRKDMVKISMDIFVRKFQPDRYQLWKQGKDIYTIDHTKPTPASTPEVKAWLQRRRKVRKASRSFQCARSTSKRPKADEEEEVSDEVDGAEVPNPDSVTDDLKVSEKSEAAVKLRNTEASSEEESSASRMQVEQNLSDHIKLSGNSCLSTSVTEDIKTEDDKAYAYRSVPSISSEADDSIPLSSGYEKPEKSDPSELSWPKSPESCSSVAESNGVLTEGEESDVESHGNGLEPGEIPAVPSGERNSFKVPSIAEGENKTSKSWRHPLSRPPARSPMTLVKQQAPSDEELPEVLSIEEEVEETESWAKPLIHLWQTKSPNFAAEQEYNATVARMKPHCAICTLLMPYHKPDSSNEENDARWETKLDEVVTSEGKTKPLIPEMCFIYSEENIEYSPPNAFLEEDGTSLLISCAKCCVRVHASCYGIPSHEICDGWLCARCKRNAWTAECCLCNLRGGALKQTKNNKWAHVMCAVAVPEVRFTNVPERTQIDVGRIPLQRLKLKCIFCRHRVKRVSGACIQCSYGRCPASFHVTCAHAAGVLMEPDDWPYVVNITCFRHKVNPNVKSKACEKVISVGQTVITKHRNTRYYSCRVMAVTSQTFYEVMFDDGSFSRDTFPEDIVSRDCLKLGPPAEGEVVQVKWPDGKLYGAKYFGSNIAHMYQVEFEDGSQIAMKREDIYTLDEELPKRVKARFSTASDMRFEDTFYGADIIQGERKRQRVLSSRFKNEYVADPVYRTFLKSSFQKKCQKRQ

CHO = test: cytotoxicity in TLR9-MyD88 CHO cells, dose response, cytotoxicity control for TLR9-MyD88 binding inhibitor project, cell-based, luminescence (AID 588339); format: functional, hamster; conditions: Cricetulus griseus;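 note: CHO cells stably coexpressing TLR9 and MyD88 fusions from primary screen; compound exposure lasted 48 hours before viability readout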
Cytochrome P450 2C9 = Cytochrome P450 2C9 (Homo sapiens, UniProt P11712)
Sequence of Cytochrome P450 2C9 (P11712 whole entry): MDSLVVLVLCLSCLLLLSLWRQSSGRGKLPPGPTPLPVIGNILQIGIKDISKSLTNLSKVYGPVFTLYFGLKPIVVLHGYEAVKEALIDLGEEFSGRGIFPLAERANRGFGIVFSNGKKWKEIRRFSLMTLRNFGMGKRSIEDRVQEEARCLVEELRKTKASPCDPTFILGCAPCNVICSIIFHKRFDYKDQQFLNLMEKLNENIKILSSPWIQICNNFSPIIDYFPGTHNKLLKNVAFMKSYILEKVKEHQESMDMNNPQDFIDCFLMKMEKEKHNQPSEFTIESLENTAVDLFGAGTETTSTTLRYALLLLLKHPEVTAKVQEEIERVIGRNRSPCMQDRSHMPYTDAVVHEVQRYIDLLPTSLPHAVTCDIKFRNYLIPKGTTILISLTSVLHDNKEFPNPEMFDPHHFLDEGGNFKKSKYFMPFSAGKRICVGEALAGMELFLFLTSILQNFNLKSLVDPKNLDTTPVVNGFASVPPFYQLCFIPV

T1 sequence (Q9Y2T6 whole entry): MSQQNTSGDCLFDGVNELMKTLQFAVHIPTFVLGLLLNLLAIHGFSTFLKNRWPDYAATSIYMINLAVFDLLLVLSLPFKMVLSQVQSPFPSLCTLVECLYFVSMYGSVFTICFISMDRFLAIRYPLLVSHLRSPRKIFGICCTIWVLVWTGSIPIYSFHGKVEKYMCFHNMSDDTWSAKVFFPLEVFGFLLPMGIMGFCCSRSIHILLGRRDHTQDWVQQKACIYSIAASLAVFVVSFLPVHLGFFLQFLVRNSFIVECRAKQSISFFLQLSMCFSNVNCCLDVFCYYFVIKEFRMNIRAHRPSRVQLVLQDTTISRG

With CC(C)=CC(=O)Nc1ccc(OCc2ccccc2)cc1 the EC50 [1] was 2.34 µM (active), the IC50 (Cannabinoid receptor 2 [2]) was > 32 µM (inactive) and the EC50 (Cannabinoid receptor 2 [3]) was > 32 µM (inactive). For the same molecule, the IC50 (Caspase-3) was 20.8 µM (active), the IC50 [4] was 8.82 µM (active) and the IC50 [5] was 25.9 µM (active). The IC50 [6] was 28.6 µM (active), the EC50 [7] was 1.89 µM (active) and the IC50 (Cannabinoid receptor 1) was > 32 µM (inactive). For the same molecule, the AC50 [8] was > 52 µM (inactive).

In the case of COc1ccc(-c2csc3ncnc(NCCN4CCOCC4)c23)cc1, the AC50 (HEK293 [9]) was 25.3 µM (active), the AC50 [10] was 21.3 µM (active) and the IC50 (Interleukin-8) was 50.7 µM (inactive).

With O=C(NCc1cc(Br)cc(Br)c1OC(=O)c1ccccc1[N+](=O)[O-])c1ccccc1 the EC50 (HEK293 [11]) was 6.43 µM (active), the IC50 (HEK293 [12]) was 5.22 µM (active) and the IC50 (HEK293 [13]) was > 20 µM (inactive). For the same molecule, the EC50 [14] was 18.6 µM (active), the IC50 (HEK293 [15]) was 5.6 µM (active) and the IC50 (HEK293 [16]) was > 20 µM (inactive). For the same molecule, the CC50 (Vero) was > 40 µM (active) and the IC50 [17] was 50.3 µM (inactive).

In the case of Cc1ccc(S(=O)(=O)O)cc1.c1cc2c(c(NC3=NCCN3)c1)CCCC2, the AC50 (Cytochrome P450 1A2) was “inactive”.

In the case of CC1(C)CC[C@]2(C(=O)O)CC[C@]3(C)C(=CC[C@@H]4[C@@]5(C)CC[C@H](O[C@@H]6O[C@H](C(=O)O)[C@@H](O)[C@H](O[C@@H]7OC[C@H](O)[C@H](O)[C@H]7O)[C@H]6O)C(C)(C)[C@@H]5CC[C@]43C)[C@@H]2C1, the AC50 [18] was 2.85 µM (active), the AC50 [19] was 0.649 µM (active) and the CC50 (Vero) was 36.8 µM (active). The IC50 (Genome polyprotein) was 31 µM (active).

For c1ccc2cc(CCO[C@H]3CCCCO3)ncc2c1, the AC50 [20] was 11.3 µM (active).

For CNC(=S)N/N=C/c1ccc(OCc2ccccc2)c(Br)c1, the IC50 (CHO) was 7.62 µM (active).

In the case of COc1cc(C(=O)NCc2ccc(OCCN(C)C)cc2)cc(OC)c1OC [TRIMETHOBENZAMIDE], the AC50 (Cytochrome P450 1A2) was “inactive” and the AC50 (Cytochrome P450 2C9) was “inactive”.
